Reference: patent publication US20210045385A1, “PYRIDAZINONE-SUBSTITUTED KETOXIMES AS HERBICIDES” (FMC Corporation, priority 2018, published 2021)

Experiments:
Assay type in all cases: in vivo
[1] = tested on: Italian ryegrass (Lolium mutiflorum); assay: Test C preemergence, visual plant response rating; conditions: Test C, 0 is no effect, 100 is complete control
In short: (§1)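 Compounds in a non-phytotoxic solvent with surfactant were applied as a directed soil spray preemergence or to 2–10 cm, one- to two-leaf plants postemergence, in loam–sand soil. After about 10 d in a greenhouse, injury was visually rated against untreated controls on a 0–100 scale (100 = complete control).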

[2] = tested on: barnyardgrass (Echinochloa crus-galli); assay: Test C preemergence, visual plant response rating; conditions: Test C, 0 is no effect, 100 is complete control
In short: as §1

[3] = tested on: foxtail, giant (giant foxtail, Setaria faberi); assay: Test C preemergence, visual plant response rating; conditions: Test C, 0 is no effect, 100 is complete control
In short: as §1

kochia (Bassia scoparia) [4] = assay: Test C preemergence, visual plant response rating; conditions: Test C, 0 is no effect, 100 is complete control
In short: as §1

[5] = tested on: pigweed (Amaranthus retroflexus); assay: Test C preemergence, visual plant response rating; conditions: Test C, 0 is no effect, 100 is complete control
In short: as §1

[6] = tested on: ragweed (common ragweed, Ambrosia artemisiifolia); assay: Test C preemergence, visual plant response rating; conditions: Test C, 0 is no effect, 100 is complete control
In short: as §1

[7] = tested on: Italian ryegrass (Lolium mutiflorum); assay: Test C postemergence, visual plant response rating
In short: as §1

[8] = tested on: barnyardgrass (Echinochloa crus-galli); assay: Test C postemergence, visual plant response rating
In short: as §1

[9] = tested on: blackgrass (Alopecurus myosuroides); assay: Test C postemergence, visual plant response rating
In short: as §1

corn (Zea mays) = assay: Test C postemergence, visual plant response rating
In short: as §1

[10] = tested on: foxtail, giant (giant foxtail, Setaria faberi); assay: Test C postemergence, visual plant response rating
In short: as §1

[11] = tested on: galium (catchweed bedstraw, Galium aparine); assay: Test C postemergence, visual plant response rating
In short: as §1

kochia (Bassia scoparia) [12] = assay: Test C postemergence, visual plant response rating
In short: as §1

[13] = tested on: pigweed (Amaranthus retroflexus); assay: Test C postemergence, visual plant response rating
In short: as §1

[14] = tested on: ragweed (common ragweed, Ambrosia artemisiifolia); assay: Test C postemergence, visual plant response rating
In short: as §1

[15] = tested on: wheat (Triticum aestivum); assay: Test C postemergence, visual plant response rating
In short: as §1

[16] = tested on: barnyardgrass (Echinochloa crus-galli); assay: Test D flooded paddy test, visual plant response rating; conditions: 250 g ai/ha, scale 0 to 100 (0 no effect, 100 complete control), 13 to 15 d
In short: (§2)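 2-leaf plants, flooded 3 cm, cpd into paddy water; greenhouse 13–15 d; visual rating vs controls, 0 = no effect, 100 = complete control; dash = no result.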

[17] = tested on: duck salad (Heteranthera limosa); assay: as above; conditions: 250 g ai/ha, scale 0 to 100 (0 no effect, 100 complete control), 13 to 15 d
In short: as §2

rice (Oryza sativa) = assay: as above; conditions: 250 g ai/ha, scale 0 to 100 (0 no effect, 100 complete control), 13 to 15 d
In short: as §2

[18] = tested on: sedge umbrella (small-flower umbrella sedge, Cyperus difformis); assay: as above; conditions: 250 g ai/ha, scale 0 to 100 (0 no effect, 100 complete control), 13 to 15 d
In short: as §2

[19] = Test C, postemergence, 125 g ai/ha

| Structure (SMILES) | Ryegrass, Italian plant response rating (0 to 100 scale) ([1]; 31 g ai/ha) | Ryegrass, Italian plant response rating (0 to 100 scale) ([1]; 125 g ai/ha) | Barnyardgrass plant response rating (0 to 100 scale) ([2]; 31 g ai/ha) | Barnyardgrass plant response rating (0 to 100 scale) ([2]; 125 g ai/ha) | Foxtail, Giant plant response rating (0 to 100 scale) ([3]; 31 g ai/ha) | Foxtail, Giant plant response rating (0 to 100 scale) ([3]; 125 g ai/ha) | Kochia plant response rating (0 to 100 scale) (kochia (Bassia scoparia) [4]; 31 g ai/ha) | Kochia plant response rating (0 to 100 scale) (kochia (Bassia scoparia) [4]; 125 g ai/ha) | Pigweed plant response rating (0 to 100 scale) ([5]; 31 g ai/ha) | Pigweed plant response rating (0 to 100 scale) ([5]; 125 g ai/ha) | Ragweed plant response rating (0 to 100 scale) ([6]; 31 g ai/ha) | Ragweed plant response rating (0 to 100 scale) ([6]; 125 g ai/ha) | Ryegrass, Italian plant response rating (0 to 100 scale) ([7]; Postemergence, 31 g ai/ha) | Ryegrass, Italian plant response rating (0 to 100 scale) [7, 19] | Barnyardgrass plant response rating (0 to 100 scale) ([8]; Postemergence, 31 g ai/ha) | Barnyardgrass plant response rating (0 to 100 scale) [8, 19] | Blackgrass plant response rating (0 to 100 scale) ([9]; Postemergence, 31 g ai/ha) | Blackgrass plant response rating (0 to 100 scale) [9, 19] | Corn plant response rating (0 to 100 scale) (corn (Zea mays); Postemergence, 31 g ai/ha) | Corn plant response rating (0 to 100 scale) (corn (Zea mays); [19]) | also measured |
| --- | --- | --- | --- | --- | --- | --- | --- | --- | --- | --- | --- | --- | --- | --- | --- | --- | --- | --- | --- | --- | --- |
| CCOc1cccc(C(=NOC)c2c(O)c(C)nn(C)c2=O)c1 [Compound 200] | 0 | 0 | 0 | 0 | 0 | 10 | 0 | 0 | 0 | 0 | 0 | 0 | 0 | 0 | 20 | 30 | 0 | 0 | 0 | 0 | Foxtail, Giant plant response rating (0 to 100 scale) ([10]; Postemergence, 31 g ai/ha): 10; Foxtail, Giant plant response rating (0 to 100 scale) [10, 19]: 20; Galium plant response rating (0 to 100 scale) ([11]; Postemergence, 31 g ai/ha): 30; Galium plant response rating (0 to 100 scale) [11, 19]: 40; Kochia plant response rating (0 to 100 scale) (kochia (Bassia scoparia) [12]; Postemergence, 31 g ai/ha): 0; Kochia plant response rating (0 to 100 scale) (kochia (Bassia scoparia) [12]; [19]): 0; Pigweed plant response rating (0 to 100 scale) ([13]; Postemergence, 31 g ai/ha): 0; Pigweed plant response rating (0 to 100 scale) [13, 19]: 0; Ragweed plant response rating (0 to 100 scale) ([14]; Postemergence, 31 g ai/ha): 0; Ragweed plant response rating (0 to 100 scale) [14, 19]: 0; Wheat plant response rating (0 to 100 scale) ([15]; Postemergence, 31 g ai/ha): 0; Wheat plant response rating (0 to 100 scale) [15, 19]: 0; Plant response rating, Barnyardgrass (Flood) [16]: 0; Plant response rating, Ducksalad (Flood) [17]: 0; Plant response rating, Rice (Flood) (rice (Oryza sativa)): 0; Plant response rating, Sedge, Umbrella (Flood) [18]: 0 |
| C#CCON=C(c1cccc(OC(F)F)c1)c1c(O)c(C)nn(C)c1=O [Compound 201] | 10 | 80 | 0 | 10 | 10 | 30 | 0 | 0 | 0 | 0 | 0 | 20 | 30 | 60 | 10 | 40 | 10 | 50 | 0 | 0 | Foxtail, Giant plant response rating (0 to 100 scale) ([10]; Postemergence, 31 g ai/ha): 20; Foxtail, Giant plant response rating (0 to 100 scale) [10, 19]: 40; Galium plant response rating (0 to 100 scale) ([11]; Postemergence, 31 g ai/ha): 50; Galium plant response rating (0 to 100 scale) [11, 19]: 80; Kochia plant response rating (0 to 100 scale) (kochia (Bassia scoparia) [12]; Postemergence, 31 g ai/ha): 40; Kochia plant response rating (0 to 100 scale) (kochia (Bassia scoparia) [12]; [19]): 70; Pigweed plant response rating (0 to 100 scale) ([13]; Postemergence, 31 g ai/ha): 20; Pigweed plant response rating (0 to 100 scale) [13, 19]: 70; Ragweed plant response rating (0 to 100 scale) ([14]; Postemergence, 31 g ai/ha): 10; Ragweed plant response rating (0 to 100 scale) [14, 19]: 30; Wheat plant response rating (0 to 100 scale) ([15]; Postemergence, 31 g ai/ha): 0; Wheat plant response rating (0 to 100 scale) [15, 19]: 40; Plant response rating, Barnyardgrass (Flood) [16]: 0; Plant response rating, Ducksalad (Flood) [17]: 0; Plant response rating, Rice (Flood) (rice (Oryza sativa)): 0; Plant response rating, Sedge, Umbrella (Flood) [18]: 0 |
| CON=C(c1cccc(OC(F)F)c1)c1c(O)c(C)nn(C)c1=O [Compound 202] | 0 | 10 | 0 | 0 | 0 | 0 | 0 | 0 | 0 | 0 | 0 | 10 | 10 | 30 | 0 | 10 | 0 | 0 | 0 | 0 | Foxtail, Giant plant response rating (0 to 100 scale) ([10]; Postemergence, 31 g ai/ha): 0; Foxtail, Giant plant response rating (0 to 100 scale) [10, 19]: 0; Galium plant response rating (0 to 100 scale) ([11]; Postemergence, 31 g ai/ha): 40; Galium plant response rating (0 to 100 scale) [11, 19]: 70; Kochia plant response rating (0 to 100 scale) (kochia (Bassia scoparia) [12]; Postemergence, 31 g ai/ha): 10; Kochia plant response rating (0 to 100 scale) (kochia (Bassia scoparia) [12]; [19]): 40; Pigweed plant response rating (0 to 100 scale) ([13]; Postemergence, 31 g ai/ha): 20; Pigweed plant response rating (0 to 100 scale) [13, 19]: 60; Ragweed plant response rating (0 to 100 scale) ([14]; Postemergence, 31 g ai/ha): 0; Ragweed plant response rating (0 to 100 scale) [14, 19]: 20; Wheat plant response rating (0 to 100 scale) ([15]; Postemergence, 31 g ai/ha): 0; Wheat plant response rating (0 to 100 scale) [15, 19]: 0; Plant response rating, Barnyardgrass (Flood) [16]: 0; Plant response rating, Ducksalad (Flood) [17]: 0; Plant response rating, Rice (Flood) (rice (Oryza sativa)): 0; Plant response rating, Sedge, Umbrella (Flood) [18]: 0 |
| C#CCON=C(c1cccc(OC)c1)c1c(O)c(C)nn(C)c1=O [Compound 203] | 0 | 0 | 0 | 0 | 0 | 10 | 0 | 0 | 0 | 0 | 0 | 0 | 30 | 30 | 0 | 20 | 0 | 0 | 0 | 0 | Foxtail, Giant plant response rating (0 to 100 scale) ([10]; Postemergence, 31 g ai/ha): 0; Foxtail, Giant plant response rating (0 to 100 scale) [10, 19]: 30; Galium plant response rating (0 to 100 scale) ([11]; Postemergence, 31 g ai/ha): 30; Galium plant response rating (0 to 100 scale) [11, 19]: 30; Kochia plant response rating (0 to 100 scale) (kochia (Bassia scoparia) [12]; Postemergence, 31 g ai/ha): 20; Kochia plant response rating (0 to 100 scale) (kochia (Bassia scoparia) [12]; [19]): 50; Pigweed plant response rating (0 to 100 scale) ([13]; Postemergence, 31 g ai/ha): 10; Pigweed plant response rating (0 to 100 scale) [13, 19]: 20; Ragweed plant response rating (0 to 100 scale) ([14]; Postemergence, 31 g ai/ha): 0; Ragweed plant response rating (0 to 100 scale) [14, 19]: 10; Wheat plant response rating (0 to 100 scale) ([15]; Postemergence, 31 g ai/ha): 0; Wheat plant response rating (0 to 100 scale) [15, 19]: 0; Plant response rating, Barnyardgrass (Flood) [16]: 0; Plant response rating, Ducksalad (Flood) [17]: 0; Plant response rating, Rice (Flood) (rice (Oryza sativa)): 0; Plant response rating, Sedge, Umbrella (Flood) [18]: 0 |
